Results published in patent EP3030673B1, “SCREENING AND IDENTIFICATION OF RESISTANT MARKERS IN CRUSTACEAN” (priority 2013, dated 2015).
Read-outs that look alike come from different tables or passages of the source.

Legend:
Format in all cases: in vivo, Lepeophtheirus salmonis
[1] = tested on: LsVikna (pyrethroid resistant strain); test: Deltamethrin bioassay on adult male sea lice, pyrethroid resistant strain
Description: (§1) In order to investigate the inheritance and mechanism of pyrethroid resistance in L. salmonis, two strains (sensitive and resistant) and their reciprocal hybrids were used for a two-generation breeding experiment complimented with bioassays to measure tolerance (Fig. 2). The pyrethroid sensitive strain (hereon also referred to as LsGulen) was collected in June 2006 from newly slaughtered rainbow trout from Gulen in western Norway. The pyrethroid resistant strain (hereon also referred to as LsVikna) was collected in February 2009 from a salmon farm in Vikna, North Trøndelag, Norway. The resistant strain was collected on the basis of suspected reduced sensitivity to pyrethroids due to the fact that there had been reported a treatment failure on the farm from which it was collected. This was subsequently confirmed in bioassays with LsGulen as sensitive control.
(§2) Each strain, including both types of hybrids obtained in example 1 were quantified in their tolerance of deltamethrin at sampling points 1 and 2 representing the F1 and F2 generations for the hybrids (Fig. 1 and 2). Bioassays were performed according to standard guidelines (SEARCH Consortium, 2006, Sea lice resistance to chemotherapeutants: A handbook in resistance management. 2 ed.), with minor modifications. Only adult male lice were used for the bioassay, which after sampling (at 55 or 56 dpi) had been incubated overnight in running seawater (ca. 10 °C). The 30 min exposure to the prepared deltamethrin concentration was also carried out at ca. 10 °C, and higher concentrations than those described in the given protocol were included (Table S3). After exposure to deltamethrin, the lice were kept in running seawater (24 h at ca. 10 °C) until evaluation of the bioassays. […] EC50 values were calculated using probit analysis (PoloPlus 2.0; LeOra Software, CA, USA). Table 3a. […]

[2] = tested on: LsHybridV (LsVikna as its maternal strain); test: Deltamethrin bioassay on adult male sea lice, hybrid strain with resistant maternal strain
Protocol: (§3) In order to hybridise the lice strains for the inheritance experiment, the parental strains were first synchronised and multiplied up in numbers by simultaneously infecting 20 Atlantic salmon with copepods. In total, 1000 copepods per strain were added. At 32 days post infection (dpi), all salmon were anaesthetised and approximately half of the lice were carefully removed using tweezers. At this stage, lice were predominantly preadult 2 females and adult males, with a few percent adult females and preadult 2 males. The lice removed from the salmon were sexed, and then used to create the reciprocal hybrid strains. This was achieved by combining 4-5 females from the resistant strain and 4-5 males from the sensitive strain (LsHybridV), and 4-5 females from the sensitive strain and 4-5 males from the resistant strain (LsHybridG). Only preadult 2 females were used. These combinations were each placed into 2 replicate tanks in order to make two hybrid strains (4 groups and 8 tanks at this stage). At 67-68 dpi, all lice were removed from the four strains. Egg strings were removed from adult females and incubated in containers containing a single strain each. The number of adult lice, and harvested egg strings varied, but all were incubated (Table 2). Table 2. Number of egg strings collected from each strain. Egg strings from replicate tanks were pooled. Most egg strings were part of a pair.
(§4) The subsequent generation (F2, Fig. 2) were both produced using the general procedure described above, although the hybrid strains were only crossed back to themselves to create multiple generation-hybrids. Collection of egg strings, which marked the establishment of a new generation, was done at 55 and 56 dpi respectively. Salmon that hosted the previous generation were re-used for reinfection with the next generation, but hosted only the same experimental strain.
(§5) Each strain, including both types of hybrids obtained in example 1 were quantified in their tolerance of deltamethrin at sampling points 1 and 2 representing the F1 and F2 generations for the hybrids (Fig. 1 and 2). Bioassays were performed according to standard guidelines (SEARCH Consortium, 2006, Sea lice resistance to chemotherapeutants: A handbook in resistance management. 2 ed.), with minor modifications. Only adult male lice were used for the bioassay, which after sampling (at 55 or 56 dpi) had been incubated overnight in running seawater (ca. 10 °C). The 30 min exposure to the prepared deltamethrin concentration was also carried out at ca. 10 °C, and higher concentrations than those described in the given protocol were included (Table S3). After exposure to deltamethrin, the lice were kept in running seawater (24 h at ca. 10 °C) until evaluation of the bioassays. […] EC50 values were calculated using probit analysis (PoloPlus 2.0; LeOra Software, CA, USA). Table 3a. Deltamethrin bioassays performed on sampling set 1

[3] = tested on: LsHybridG (LsGulen as its maternal strain)
Protocol: as §3, §4, §5

[4] = tested on: LsGulen (pyrethroid sensitive strain)
Description: as §1, §2

## CC1(C)[C@H](C(=O)O[C@H](C#N)c2cccc(Oc3ccccc3)c2)[C@@H]1C=C(Br)Br [Deltamethrin, deltamethrin]
[1]; above 1 ppb, resistant strain
  survival of the bioassay: survived the bioassay
[1]; sampling set 1, F6, fish tank 05, dose 0.1 ppb
  % Inactive: 0%
[1]; sampling set 1, F6, fish tank 05, dose 0.3 ppb
  % Inactive: 0%
[1]; sampling set 1, F6, fish tank 05, dose 1 ppb
  % Inactive: 12%
[1]; sampling set 1, F6, fish tank 05, dose 3 ppb
  % Inactive: 27%
[1]; sampling set 1, F6, fish tank 05, dose 6 ppb
  % Inactive: 35%
[1]; sampling set 1, F6, fish tank 05, dose 12 ppb
  % Inactive: 41%
[1]; sampling set 1, F6, fish tank 09, dose 0.1 ppb
  % Inactive: 4%
[1]; sampling set 1, F6, fish tank 09, dose 0.3 ppb
  % Inactive: 0%
[1]; sampling set 1, F6, fish tank 09, dose 1 ppb
  % Inactive: 10%
[1]; sampling set 1, F6, fish tank 09, dose 3 ppb
  % Inactive: 19%
[1]; sampling set 1, F6, fish tank 09, dose 6 ppb
  % Inactive: 23%
[1]; sampling set 1, F6, fish tank 09, dose 12 ppb
  % Inactive: 28%
[1]; sampling set 2, F7, fish tank 08, dose 0.1 ppb
  % Inactive: 0%
[1]; sampling set 2, F7, fish tank 08, dose 0.3 ppb
  % Inactive: 0%
[1]; sampling set 2, F7, fish tank 08, dose 0.5 ppb
  % Inactive: 0%
[1]; sampling set 2, F7, fish tank 08, dose 1 ppb
  % Inactive: 0%
[1]; sampling set 2, F7, fish tank 08, dose 3 ppb
  % Inactive: 6%
[1]; sampling set 2, F7, fish tank 08, dose 6 ppb
  % Inactive: 18%
[1]; sampling set 2, F7, fish tank 08, dose 12 ppb
  % Inactive: 0%
[1]; sampling set 2, F7, fish tank 08, dose 20 ppb
  % Inactive: 39%
[2]; above 1 ppb, maternal hybrid strain of the resistant strain
  survival of the bioassay: survived the bioassay
[2]; sampling set 1, F1, fish tank 02, dose 0.1 ppb
  % Inactive: 0%
[2]; sampling set 1, F1, fish tank 02, dose 0.3 ppb
  % Inactive: 0%
[2]; sampling set 1, F1, fish tank 02, dose 1 ppb
  % Inactive: 5%
[2]; sampling set 1, F1, fish tank 02, dose 3 ppb
  % Inactive: 13%
[2]; sampling set 1, F1, fish tank 02, dose 6 ppb
  % Inactive: 5%
[2]; sampling set 1, F1, fish tank 02, dose 12 ppb
  % Inactive: 31%
[2]; sampling set 1, F1, fish tank 06, dose 0.1 ppb
  % Inactive: 0%
[2]; sampling set 1, F1, fish tank 06, dose 0.3 ppb
  % Inactive: 0%
[2]; sampling set 1, F1, fish tank 06, dose 1 ppb
  % Inactive: 7%
[2]; sampling set 1, F1, fish tank 06, dose 3 ppb
  % Inactive: 2%
[2]; sampling set 1, F1, fish tank 06, dose 6 ppb
  % Inactive: 9%
[2]; sampling set 1, F1, fish tank 06, dose 12 ppb
  % Inactive: 32%
[2]; sampling set 2, F2, fish tank 06, dose 0.1 ppb
  % Inactive: 0%
[2]; sampling set 2, F2, fish tank 06, dose 0.3 ppb
  % Inactive: 0%
[2]; sampling set 2, F2, fish tank 06, dose 0.5 ppb
  % Inactive: 0%
[2]; sampling set 2, F2, fish tank 06, dose 1 ppb
  % Inactive: 0%
[2]; sampling set 2, F2, fish tank 06, dose 3 ppb
  % Inactive: 16%
[2]; sampling set 2, F2, fish tank 06, dose 6 ppb
  % Inactive: 14%
[2]; sampling set 2, F2, fish tank 06, dose 12 ppb
  % Inactive: 21%
[2]; sampling set 2, F2, fish tank 06, dose 20 ppb
  % Inactive: 40%
[2]; sampling set 2, F2, fish tank 09, dose 0.1 ppb
  % Inactive: 14%
[2]; sampling set 2, F2, fish tank 09, dose 0.3 ppb
  % Inactive: 0%
[2]; sampling set 2, F2, fish tank 09, dose 0.5 ppb
  % Inactive: 3%
[2]; sampling set 2, F2, fish tank 09, dose 1 ppb
  % Inactive: 5%
[2]; sampling set 2, F2, fish tank 09, dose 3 ppb
  % Inactive: 0%
[2]; sampling set 2, F2, fish tank 09, dose 6 ppb
  % Inactive: 19%
[2]; sampling set 2, F2, fish tank 09, dose 12 ppb
  % Inactive: 8%
[2]; sampling set 2, F2, fish tank 09, dose 20 ppb
  % Inactive: 54%
[3]; above 1 ppb, maternal hybrid strain of the sensitive strain
  mortality: 100%
[3]; sampling set 1, F1, fish tank 01, dose 0.1 ppb
  % Inactive: 0%
[3]; sampling set 1, F1, fish tank 01, dose 0.3 ppb
  % Inactive: 21%
[3]; sampling set 1, F1, fish tank 01, dose 1 ppb
  % Inactive: 100%
[3]; sampling set 1, F1, fish tank 01, dose 3 ppb
  % Inactive: 100%
[3]; sampling set 1, F1, fish tank 01, dose 6 ppb
  % Inactive: 100%
[3]; sampling set 1, F1, fish tank 01, dose 12 ppb
  % Inactive: 100%
[3]; sampling set 1, F1, fish tank 07, dose 0.1 ppb
  % Inactive: 18%
[3]; sampling set 1, F1, fish tank 07, dose 0.3 ppb
  % Inactive: 32%
[3]; sampling set 1, F1, fish tank 07, dose 1 ppb
  % Inactive: 100%
[3]; sampling set 1, F1, fish tank 07, dose 3 ppb
  % Inactive: 100%
[3]; sampling set 1, F1, fish tank 07, dose 6 ppb
  % Inactive: 100%
[3]; sampling set 1, F1, fish tank 07, dose 12 ppb
  % Inactive: 100%
[3]; sampling set 2, F2, fish tank 07, dose 0.1 ppb
  % Inactive: 0%
[3]; sampling set 2, F2, fish tank 07, dose 0.3 ppb
  % Inactive: 50%
[3]; sampling set 2, F2, fish tank 07, dose 0.5 ppb
  % Inactive: 85%
[3]; sampling set 2, F2, fish tank 07, dose 1 ppb
  % Inactive: 90%
[3]; sampling set 2, F2, fish tank 07, dose 3 ppb
  % Inactive: 100%
[3]; sampling set 2, F2, fish tank 07, dose 6 ppb
  % Inactive: 100%
[3]; sampling set 2, F2, fish tank 07, dose 12 ppb
  % Inactive: 100%
[3]; sampling set 2, F2, fish tank 07, dose 20 ppb
  % Inactive: 100%
[3]; sampling set 2, F2, fish tank 10, dose 0.1 ppb
  % Inactive: 5%
[3]; sampling set 2, F2, fish tank 10, dose 0.3 ppb
  % Inactive: 43%
[3]; sampling set 2, F2, fish tank 10, dose 0.5 ppb
  % Inactive: 72%
[3]; sampling set 2, F2, fish tank 10, dose 1 ppb
  % Inactive: 100%
[3]; sampling set 2, F2, fish tank 10, dose 3 ppb
  % Inactive: 100%
[3]; sampling set 2, F2, fish tank 10, dose 6 ppb
  % Inactive: 100%
[3]; sampling set 2, F2, fish tank 10, dose 12 ppb
  % Inactive: 100%
[3]; sampling set 2, F2, fish tank 10, dose 20 ppb
  % Inactive: 100%
[4]; above 1 ppb, sensitive strain
  mortality: 100%
[4]; sampling set 1, F15, fish tank 04, dose 0.1 ppb
  % Inactive: 0%
[4]; sampling set 1, F15, fish tank 04, dose 0.3 ppb
  % Inactive: 48%
[4]; sampling set 1, F15, fish tank 04, dose 1 ppb
  % Inactive: 100%
[4]; sampling set 1, F15, fish tank 04, dose 3 ppb
  % Inactive: 100%
[4]; sampling set 1, F15, fish tank 04, dose 6 ppb
  % Inactive: 100%
[4]; sampling set 1, F15, fish tank 04, dose 12 ppb
  % Inactive: 100%
[4]; sampling set 1, F15, fish tank 10, dose 0.1 ppb
  % Inactive: 0%
[4]; sampling set 1, F15, fish tank 10, dose 0.3 ppb
  % Inactive: 50%
[4]; sampling set 1, F15, fish tank 10, dose 1 ppb
  % Inactive: 100%
[4]; sampling set 1, F15, fish tank 10, dose 3 ppb
  % Inactive: 100%
[4]; sampling set 1, F15, fish tank 10, dose 6 ppb
  % Inactive: 100%
[4]; sampling set 1, F15, fish tank 10, dose 12 ppb
  % Inactive: 100%
[4]; sampling set 2, F16, fish tank 03, dose 0.1 ppb
  % Inactive: 5%
[4]; sampling set 2, F16, fish tank 03, dose 0.3 ppb
  % Inactive: 48%
[4]; sampling set 2, F16, fish tank 03, dose 0.5 ppb
  % Inactive: 86%
[4]; sampling set 2, F16, fish tank 03, dose 1 ppb
  % Inactive: 100%
[4]; sampling set 2, F16, fish tank 03, dose 3 ppb
  % Inactive: 100%
[4]; sampling set 2, F16, fish tank 03, dose 6 ppb
  % Inactive: 100%
[4]; sampling set 2, F16, fish tank 04, dose 0.1 ppb
  % Inactive: 8%
[4]; sampling set 2, F16, fish tank 04, dose 0.3 ppb
  % Inactive: 55%
[4]; sampling set 2, F16, fish tank 04, dose 0.5 ppb
  % Inactive: 95%
[4]; sampling set 2, F16, fish tank 04, dose 1 ppb
  % Inactive: 100%
[4]; sampling set 2, F16, fish tank 04, dose 3 ppb
  % Inactive: 100%
[4]; sampling set 2, F16, fish tank 04, dose 6 ppb
  % Inactive: 100%
[4]; sampling set 2, F16, fish tank 04, dose 12 ppb
  % Inactive: 100%
